Reference: US20110060048A1, “Removing alcohol in vivo through esterification” (priority 2009, published 2011)
Read-outs that look alike come from different tables or passages of the source.

What was measured:
[1] = for C2H5OH % Decrease at Equilibrium, Trial 2 / C2H5OH % Decrease at Equilibrium, Trial 3 / C2H5OH % Decrease at Equilibrium, Trial 4 / C2H5OH % Decrease at Equilibrium, Trial 5 / C2H5OH % Decrease at Equilibrium, Average / C2H5OH % Decrease at Equilibrium, Trial 1: equal acetic acid
Method: Titrations with potassium permanganate (KMnO4) were later performed after the contents of each beaker received 5 minutes each of vigorous stirring and 25 minutes of inactivity to compare the final amount of ethanol left with the original amount.
In the following we describe the detailed procedure of in vitro experiment to verify the validity of reducing the amount of ethanol by esterification: • 1. Label four 100-mL beakers, 0.4 M, 0.6 M, 0.8 M, and 1.0 M. • 2. Put 17.15 mL of distilled water into each. • 3. Add 0.4 mL of concentrated ethanol to the first beaker, 0.6 mL to the second, 0.8 mL to the third, and 1.0 mL to the fourth. Swivel each beaker gently for 20-30 seconds to ensure mixing. See calculations below for explanation. • 4. Add another 17.15 mL of water to each beaker • 5. […] See calculations below for explanation. • 6. Stir each sample vigorously for five minutes in succession. […] Put on latex gloves before handling potassium permanganate. • 8. Set up two burettes, and fill each with approximately 100 mL of 0.2 M potassium permanganate. This will enable two titrations to be simultaneously done. • 9. Record the initial volume of potassium permanganate present in both burettes. • 10. Place 1.0 M and 0.8 M beakers on hot plate, and turn to power level 3. Heating quickens the titration process. • 11. Slowly drip KMnO4 into beakers while stirring. Make sure that each beaker is consistently titrated with the same burette to ensure that the exact volumes of KMnO4 that each beaker received can be easily calculated. • 12. Potassium permanganate is purple in color. When reacted with ethanol, a brown color (manganese oxide, MnO2) appears. The reaction is as follows:
When potassium permanganate ceases to be converted into manganese oxide, and the purple color stays, the titration is finished. There is no ethanol left in the beaker to react with potassium permanganate. • 13. Remove both beakers from hot plate. Measure the volume of potassium permanganate remaining in each burette. Subtract from the original volumes to find the volume of KMnO4 consumed in each reaction. • 14. Repeat steps 9-13 for the 0.6 M and 0.4 M beakers. • 15. Use stoichiometry to calculate the molar amount of 0.2 M potassium permanganate used in each titration. • 16. Ethanol and potassium permanganate react in a 3:4 molar ratio, according to the equation 3C2H5OH+4KMnO4→3CH3COOH+4MnO2+4KOH+H2O.
Again, use a chain calculation to calculate the molar amount of ethanol remaining in each beaker, then divide by […] to convert to molarity. Compare to the molarity of ethanol originally in each beaker. Calculate % error. • 17. Results (see Table 2)

[2] = eight male volunteers, alcoholic beverage followed by 30 grams of fructose or sucrose, hourly measurements; cited from earlier work

CC(=O)O [acetic acid]
decrease in the amount of ethanol when the system reaches equilibrium ([1]; 0.4-1.0 M ethanol with same volume and concentration of acetic acid): 79-86% | reduction of the ethanol amount ([1]; equal molar number of acetic acid added to the ethanol solution, 5 repeats): 80-90% | C2H5OH % Decrease at Equilibrium, Trial 2 ([1]; initial C2H5OH 0.4 M): 78.1% | C2H5OH % Decrease at Equilibrium, Trial 3 ([1]; initial C2H5OH 0.4 M): 81.5% | C2H5OH % Decrease at Equilibrium, Trial 4 ([1]; initial C2H5OH 0.4 M): 81.2% | C2H5OH % Decrease at Equilibrium, Trial 5 ([1]; initial C2H5OH 0.4 M): 80.0% | C2H5OH % Decrease at Equilibrium, Average ([1]; initial C2H5OH 0.4 M, average of trials): 80.2% | C2H5OH % Decrease at Equilibrium, Trial 2 ([1]; initial C2H5OH 0.6 M): 82.7% | C2H5OH % Decrease at Equilibrium, Trial 3 ([1]; initial C2H5OH 0.6 M): 83.8% | C2H5OH % Decrease at Equilibrium, Trial 4 ([1]; initial C2H5OH 0.6 M): 83.7% | C2H5OH % Decrease at Equilibrium, Trial 5 ([1]; initial C2H5OH 0.6 M): 82.5% | C2H5OH % Decrease at Equilibrium, Average ([1]; initial C2H5OH 0.6 M, average of trials): 83.2% | C2H5OH % Decrease at Equilibrium, Trial 1 ([1]; initial C2H5OH 0.8 M): 89.1% | C2H5OH % Decrease at Equilibrium, Trial 2 ([1]; initial C2H5OH 0.8 M): 86.2% | C2H5OH % Decrease at Equilibrium, Trial 3 ([1]; initial C2H5OH 0.8 M): 84.7% | C2H5OH % Decrease at Equilibrium, Trial 4 ([1]; initial C2H5OH 0.8 M): 84.6% | C2H5OH % Decrease at Equilibrium, Trial 5 ([1]; initial C2H5OH 0.8 M): 85.5% | C2H5OH % Decrease at Equilibrium, Average ([1]; initial C2H5OH 0.8 M, average of 5 trials): 86.0% | C2H5OH % Decrease at Equilibrium, Trial 1 ([1]; initial C2H5OH 1.0 M): 91.3% | C2H5OH % Decrease at Equilibrium, Trial 2 ([1]; initial C2H5OH 1.0 M): 88.8% | C2H5OH % Decrease at Equilibrium, Trial 3 ([1]; initial C2H5OH 1.0 M): 86.5% | C2H5OH % Decrease at Equilibrium, Trial 4 ([1]; initial C2H5OH 1.0 M): 91.1% | C2H5OH % Decrease at Equilibrium, Trial 5 ([1]; initial C2H5OH 1.0 M): 90.4% | C2H5OH % Decrease at Equilibrium, Average ([1]; initial C2H5OH 1.0 M, average of 5 trials): 89.6%

O=C(CO)[C@@H](O)[C@H](O)[C@H](O)CO [fructose]
percent of ethanol decrease (plateau, on average) [2]: 29%

OC[C@H]1O[C@@](CO)(O[C@H]2O[C@H](CO)[C@@H](O)[C@H](O)[C@H]2O)[C@@H](O)[C@@H]1O [sucrose]
percent of ethanol decrease (plateau, on average) [2]: 29%
